US7776893B2, “Use of PDE4 inhibitors for the treatment of diabetes mellitus” (NYCOMED GmbH, priority 2003, dated 2010)

Experiments:
Type in all cases: in vivo
C57BLKS db/db mice [1] = experiment: 10 days study: oral glucose tolerance, blood glucose 15 minutes after glucose application; settings: fasted 24 h, 15 minutes after 1 g/kg oral glucose
Method: (§1) Female C57BLKS db/db mice obtained from M&B A/S (8680 Ry, Denmark) were used In the studies at 10 to 11 weeks of age. Mice were housed 10 per cage and allowed free access to water and chow (chow 3433, Provimi Kliba SA, 4303 Kaiseraugst, Switzerland).
(§2) Mice were allowed to acclimate to the local animal facilities for 1 week and retro-orbital blood samples were obtained 3 to 7 days prior to the start of the study.
(§3) Mice were treated with vehicle or a selected PDE4 inhibitor compound once daily in the morning. The selective PDE4 inhibitor compounds to be tested were suspended in 4% methocel and applied via oral gavage using oral feeding & dosing needles (outer diameter: 1.5 mm, TSE GmbH, 61350 Bad Homburg, Germany). A volume of 10 ml/kg body weight was administered for each dose.
(§4) 10 days studies: Mice were treated with vehicle or a selected PDE4 inhibitor compound once daily in the morning. On day 9, mice were fasted for 24 hours by removing chow 1 hour after drug application. On day 10, glucose tolerance was assessed by oral application of 1 g/kg/10 ml glucose. Blood was sampled 15 minutes after glucose application and levels of glucose (accu-chek, Roche Diagnostics GmbH, 68298 Mannheim, Germany) were measured.

C57BLKS db/db mice [2] = experiment: 56 days study: lactate levels, fasting and after glucose application; settings: for Lactate 15 min after glucose application: 1 g/kg oral glucose; for Lactate fasting: serum, fasted 24 h
Method: as §1, §2, §3
as §4, with “56 days” for “10 days”, “day 55,” for “day 9,”, “day 56, fasting blood glucose levels were measured and” for “day 10,”, “Germany) and lactate (lactate reagent, Sigma-Aldrich GmbH, 82039 Deisenhofen, Germany)” for “Germany)”

C57BLKS db/db mice [3] = experiment: 56 days study: fasting blood glucose and oral glucose tolerance; settings: for Blood glucose 15 min after glucose application: 1 g/kg oral glucose; for Blood glucose fasting: fasted 24 h
Method: as §1, §2, §3
as §4, with “56 days” for “10 days”, “day 55,” for “day 9,”, “day 56, fasting blood glucose levels were measured and” for “day 10,”, “Germany) and lactate (lactate reagent, Sigma-Aldrich GmbH, 82039 Deisenhofen, Germany)” for “Germany)”

Row | Structure (SMILES) | Blood glucose (C57BLKS db/db mice [1]; 3 mg/kg oral once daily) [mg/dL] | Blood glucose (C57BLKS db/db mice [1]; 30 mg/kg oral once daily) [mg/dL] | Lactate 15 min after glucose application (C57BLKS db/db mice [2]; 3 mg/kg oral once daily) [mg/dL] | Lactate 15 min after glucose application (C57BLKS db/db mice [2]; 30 mg/kg oral once daily) [mg/dL] | Lactate fasting (C57BLKS db/db mice [2]; 3 mg/kg oral once daily) [mg/dL] | Lactate fasting (C57BLKS db/db mice [2]; 30 mg/kg oral once daily) [mg/dL] | Blood glucose 15 min after glucose application (C57BLKS db/db mice [3]; 3 mg/kg oral once daily) [mg/dL] | Blood glucose fasting (C57BLKS db/db mice [3]; 3 mg/kg oral once daily) [mg/dL] | Blood glucose 15 min after glucose application (C57BLKS db/db mice [3]; 30 mg/kg oral once daily) [mg/dL] | Blood glucose fasting (C57BLKS db/db mice [3]; 30 mg/kg oral once daily) [mg/dL]
1 | CCn1nnc(-c2ccc(C3=N[C@H]4CCCC[C@H]4c4cc(OC)c(OC)cc43)cc2)n1 [COMPOUND D, (−)-cis-6-[4-(2-Ethyl-2H-tetrazol-5-yl)-phenyl]-8,9-dimethoxy-1,2,3,4,4a,10b-hexahydrophenanthridine] | 437 | 285 |  |  |  |  |  |  |  | 
2 | COc1cc2c(cc1OC)[C@@H]1CCCC[C@@H]1N=C2c1ccc(C(=O)c2ccccc2)cc1 [COMPOUND B, (−)-cis-8,9-Dimethoxy-6-(4-benzoylphenyl)-1,2,3,4,4a,10b-hexahydrophenanthridine] | 362 | 251 |  |  |  |  |  |  |  | 
3 | COc1cc2c(cc1OC)[C@@H]1CCCC[C@@H]1N=C2c1ccc(C(=O)O)cc1.Cl [COMPOUND C, (+)-cis-8,9-Dimethoxy-6-(4-carboxyphenyl)-1,2,3,4,4a,10b-hexahydrophenanthridine Hydrochloride] | 506 | 449 |  |  |  |  |  |  |  | 
4 | COc1cc2c(cc1OC)[C@@H]1CCCC[C@@H]1N=C2c1ccc(OCC2CC2)c(OCC2CC2)c1 [COMPOUND A, (−)-cis-8,9-Dimethoxy-6-[3,4-bis-(cyclopropylmethoxy)phenyl]-1,2,3,4,4a,10b-hexahydrophenanthridine] | 507 | 411.5 | 70 | 61 | 49 | 43 | 580 | 279 | 352 | 193
